Results taken from article PMC11233931, “Remodeling tumor‐associated macrophage for anti‐cancer effects by rational design of irreversible inhibition of mitogen‐activated protein kinase‐activated protein kinase 2” (MedComm, 2024).

Key:
Experiment in all cases: Eurofins kinase selectivity profile against 380 other human recombinant kinases (Table S2)
Type in all cases: biochemical
[1] = biological target: T1, 380 human recombinant protein kinases (Homo sapiens, UniProt Q14289); details: Pyk2(h), read-out: Inhibition rate
T1 construct: purchased Eurofins (Celle Lévescault)
Outline: (§1)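 The inhibitor was sent to a contract lab and screened at various concentrations against 380 human recombinant protein kinases. This served as a counter-screen for MK2 specificity.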

[2] = biological target: T2, 380 human recombinant protein kinases (Homo sapiens, UniProt Q96GD4); details: Aurora-B(h), read-out: Inhibition rate
T2 construct: purchased Eurofins (Celle Lévescault)
Outline: as §1

[3] = biological target: T3, 380 human recombinant protein kinases (Homo sapiens, UniProt Q96PY6); details: NEK1(h), read-out: Inhibition rate
T3 construct: purchased Eurofins (Celle Lévescault)
T3 sequence (Q96PY6 1-1258): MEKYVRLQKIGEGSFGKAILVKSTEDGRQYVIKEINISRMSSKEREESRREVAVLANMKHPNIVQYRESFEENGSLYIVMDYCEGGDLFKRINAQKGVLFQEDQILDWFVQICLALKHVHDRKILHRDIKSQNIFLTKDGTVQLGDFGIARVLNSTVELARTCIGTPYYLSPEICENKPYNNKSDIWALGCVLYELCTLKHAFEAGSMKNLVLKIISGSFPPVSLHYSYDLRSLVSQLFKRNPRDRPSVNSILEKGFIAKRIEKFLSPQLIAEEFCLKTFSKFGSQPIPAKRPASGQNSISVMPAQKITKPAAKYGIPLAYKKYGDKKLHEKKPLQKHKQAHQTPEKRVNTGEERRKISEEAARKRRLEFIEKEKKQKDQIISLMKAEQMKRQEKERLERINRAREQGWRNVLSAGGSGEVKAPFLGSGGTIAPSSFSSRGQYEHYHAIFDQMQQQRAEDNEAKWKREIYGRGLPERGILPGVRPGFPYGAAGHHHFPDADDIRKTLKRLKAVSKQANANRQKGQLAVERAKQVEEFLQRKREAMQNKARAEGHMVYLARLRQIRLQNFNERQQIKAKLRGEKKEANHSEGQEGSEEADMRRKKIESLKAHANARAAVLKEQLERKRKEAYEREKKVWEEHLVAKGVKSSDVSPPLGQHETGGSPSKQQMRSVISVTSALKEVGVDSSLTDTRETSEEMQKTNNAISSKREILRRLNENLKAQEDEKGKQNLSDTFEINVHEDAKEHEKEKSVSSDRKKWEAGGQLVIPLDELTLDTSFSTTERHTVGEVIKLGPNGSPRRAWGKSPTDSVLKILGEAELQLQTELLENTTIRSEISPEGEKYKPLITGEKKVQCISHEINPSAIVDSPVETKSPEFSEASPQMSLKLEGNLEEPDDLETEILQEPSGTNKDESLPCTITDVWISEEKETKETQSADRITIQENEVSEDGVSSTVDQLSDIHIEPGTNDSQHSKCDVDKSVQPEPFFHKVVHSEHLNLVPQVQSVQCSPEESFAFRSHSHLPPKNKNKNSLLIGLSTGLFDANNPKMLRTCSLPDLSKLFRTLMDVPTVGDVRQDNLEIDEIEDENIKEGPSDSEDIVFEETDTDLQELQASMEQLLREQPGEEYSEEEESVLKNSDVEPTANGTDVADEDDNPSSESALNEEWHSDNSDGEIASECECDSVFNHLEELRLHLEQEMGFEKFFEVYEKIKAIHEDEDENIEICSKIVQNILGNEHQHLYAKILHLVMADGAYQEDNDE
Outline: as §1

[4] = biological target: T4, 380 human recombinant protein kinases (Homo sapiens, UniProt Q96RR4); details: CaMKK2(h), read-out: Inhibition rate
T4 construct: purchased Eurofins (Celle Lévescault)
Outline: as §1

[5] = biological target: T5, 380 human recombinant protein kinases (Homo sapiens, UniProt Q9H093); details: NUAK2(h), read-out: Inhibition rate
T5 construct: purchased Eurofins (Celle Lévescault)
T5 sequence (Q9H093 1-628): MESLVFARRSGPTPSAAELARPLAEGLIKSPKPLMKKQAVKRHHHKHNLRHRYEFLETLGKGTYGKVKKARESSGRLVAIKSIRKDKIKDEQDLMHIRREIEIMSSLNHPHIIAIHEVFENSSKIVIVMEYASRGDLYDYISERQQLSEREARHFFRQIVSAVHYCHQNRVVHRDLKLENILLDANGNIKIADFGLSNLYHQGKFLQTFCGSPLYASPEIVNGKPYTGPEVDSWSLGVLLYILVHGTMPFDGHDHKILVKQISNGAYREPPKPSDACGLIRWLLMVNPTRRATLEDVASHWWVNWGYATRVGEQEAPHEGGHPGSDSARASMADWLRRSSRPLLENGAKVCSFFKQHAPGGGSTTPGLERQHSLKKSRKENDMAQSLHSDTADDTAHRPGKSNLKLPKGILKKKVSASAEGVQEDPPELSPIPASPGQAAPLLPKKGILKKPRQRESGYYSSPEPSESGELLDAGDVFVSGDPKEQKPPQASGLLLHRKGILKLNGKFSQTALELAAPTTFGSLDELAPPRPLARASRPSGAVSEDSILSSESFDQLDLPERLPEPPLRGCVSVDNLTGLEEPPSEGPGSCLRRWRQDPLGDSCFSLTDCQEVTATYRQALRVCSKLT
Outline: as §1

[6] = biological target: T6, 380 human recombinant protein kinases (Homo sapiens, UniProt Q9P2K8); details: GCN2(h), read-out: Inhibition rate
T6 construct: purchased Eurofins (Celle Lévescault)
Outline: as §1

[7] = biological target: T7, 380 human recombinant protein kinases (Homo sapiens, UniProt Q9UIK4); details: DAPK2(h), read-out: Inhibition rate
T7 construct: purchased Eurofins (Celle Lévescault)
Outline: as §1

[8] = biological target: T8, 380 human recombinant protein kinases (Homo sapiens, UniProt Q9UK32); details: Rsk4(h), read-out: Inhibition rate (%)
T8 construct: purchased Eurofins (Celle Lévescault)
Outline: as §1

T4 sequence (Q96RR4 whole entry): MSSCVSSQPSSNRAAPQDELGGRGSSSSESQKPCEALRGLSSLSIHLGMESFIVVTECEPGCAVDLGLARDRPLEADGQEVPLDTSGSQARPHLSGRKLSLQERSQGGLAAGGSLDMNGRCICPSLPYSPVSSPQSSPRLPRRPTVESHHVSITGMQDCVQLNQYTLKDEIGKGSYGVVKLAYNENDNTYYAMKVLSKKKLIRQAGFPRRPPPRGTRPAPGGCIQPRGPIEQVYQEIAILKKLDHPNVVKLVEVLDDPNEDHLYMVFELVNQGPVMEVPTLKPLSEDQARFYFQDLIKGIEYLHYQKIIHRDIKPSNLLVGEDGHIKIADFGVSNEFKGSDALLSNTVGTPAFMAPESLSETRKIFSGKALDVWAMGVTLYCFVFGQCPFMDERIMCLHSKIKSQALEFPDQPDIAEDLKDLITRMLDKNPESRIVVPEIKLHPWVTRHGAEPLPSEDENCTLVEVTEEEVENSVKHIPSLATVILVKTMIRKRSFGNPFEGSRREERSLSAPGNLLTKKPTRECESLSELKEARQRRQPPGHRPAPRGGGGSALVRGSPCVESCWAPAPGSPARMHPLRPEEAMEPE
T8 sequence (Q9UK32 whole entry): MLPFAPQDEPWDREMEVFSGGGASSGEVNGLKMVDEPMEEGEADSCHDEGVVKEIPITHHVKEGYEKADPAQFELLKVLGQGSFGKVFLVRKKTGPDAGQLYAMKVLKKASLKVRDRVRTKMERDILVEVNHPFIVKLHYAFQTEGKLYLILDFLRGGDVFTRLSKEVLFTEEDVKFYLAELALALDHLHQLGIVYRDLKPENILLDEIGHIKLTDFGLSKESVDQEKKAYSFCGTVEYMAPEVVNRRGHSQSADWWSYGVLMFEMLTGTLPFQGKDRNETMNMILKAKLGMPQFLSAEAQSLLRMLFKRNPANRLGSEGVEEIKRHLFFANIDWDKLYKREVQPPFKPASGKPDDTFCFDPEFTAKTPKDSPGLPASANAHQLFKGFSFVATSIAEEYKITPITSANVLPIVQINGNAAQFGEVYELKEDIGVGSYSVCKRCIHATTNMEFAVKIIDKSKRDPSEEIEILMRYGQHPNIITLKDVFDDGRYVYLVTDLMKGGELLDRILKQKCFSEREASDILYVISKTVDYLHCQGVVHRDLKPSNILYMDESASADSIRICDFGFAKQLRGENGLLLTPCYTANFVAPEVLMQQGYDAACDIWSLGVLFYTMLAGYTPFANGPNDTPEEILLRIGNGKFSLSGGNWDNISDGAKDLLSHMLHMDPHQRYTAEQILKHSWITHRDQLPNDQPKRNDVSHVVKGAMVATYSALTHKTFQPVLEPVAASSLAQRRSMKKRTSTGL
T6 sequence (Q9P2K8 whole entry): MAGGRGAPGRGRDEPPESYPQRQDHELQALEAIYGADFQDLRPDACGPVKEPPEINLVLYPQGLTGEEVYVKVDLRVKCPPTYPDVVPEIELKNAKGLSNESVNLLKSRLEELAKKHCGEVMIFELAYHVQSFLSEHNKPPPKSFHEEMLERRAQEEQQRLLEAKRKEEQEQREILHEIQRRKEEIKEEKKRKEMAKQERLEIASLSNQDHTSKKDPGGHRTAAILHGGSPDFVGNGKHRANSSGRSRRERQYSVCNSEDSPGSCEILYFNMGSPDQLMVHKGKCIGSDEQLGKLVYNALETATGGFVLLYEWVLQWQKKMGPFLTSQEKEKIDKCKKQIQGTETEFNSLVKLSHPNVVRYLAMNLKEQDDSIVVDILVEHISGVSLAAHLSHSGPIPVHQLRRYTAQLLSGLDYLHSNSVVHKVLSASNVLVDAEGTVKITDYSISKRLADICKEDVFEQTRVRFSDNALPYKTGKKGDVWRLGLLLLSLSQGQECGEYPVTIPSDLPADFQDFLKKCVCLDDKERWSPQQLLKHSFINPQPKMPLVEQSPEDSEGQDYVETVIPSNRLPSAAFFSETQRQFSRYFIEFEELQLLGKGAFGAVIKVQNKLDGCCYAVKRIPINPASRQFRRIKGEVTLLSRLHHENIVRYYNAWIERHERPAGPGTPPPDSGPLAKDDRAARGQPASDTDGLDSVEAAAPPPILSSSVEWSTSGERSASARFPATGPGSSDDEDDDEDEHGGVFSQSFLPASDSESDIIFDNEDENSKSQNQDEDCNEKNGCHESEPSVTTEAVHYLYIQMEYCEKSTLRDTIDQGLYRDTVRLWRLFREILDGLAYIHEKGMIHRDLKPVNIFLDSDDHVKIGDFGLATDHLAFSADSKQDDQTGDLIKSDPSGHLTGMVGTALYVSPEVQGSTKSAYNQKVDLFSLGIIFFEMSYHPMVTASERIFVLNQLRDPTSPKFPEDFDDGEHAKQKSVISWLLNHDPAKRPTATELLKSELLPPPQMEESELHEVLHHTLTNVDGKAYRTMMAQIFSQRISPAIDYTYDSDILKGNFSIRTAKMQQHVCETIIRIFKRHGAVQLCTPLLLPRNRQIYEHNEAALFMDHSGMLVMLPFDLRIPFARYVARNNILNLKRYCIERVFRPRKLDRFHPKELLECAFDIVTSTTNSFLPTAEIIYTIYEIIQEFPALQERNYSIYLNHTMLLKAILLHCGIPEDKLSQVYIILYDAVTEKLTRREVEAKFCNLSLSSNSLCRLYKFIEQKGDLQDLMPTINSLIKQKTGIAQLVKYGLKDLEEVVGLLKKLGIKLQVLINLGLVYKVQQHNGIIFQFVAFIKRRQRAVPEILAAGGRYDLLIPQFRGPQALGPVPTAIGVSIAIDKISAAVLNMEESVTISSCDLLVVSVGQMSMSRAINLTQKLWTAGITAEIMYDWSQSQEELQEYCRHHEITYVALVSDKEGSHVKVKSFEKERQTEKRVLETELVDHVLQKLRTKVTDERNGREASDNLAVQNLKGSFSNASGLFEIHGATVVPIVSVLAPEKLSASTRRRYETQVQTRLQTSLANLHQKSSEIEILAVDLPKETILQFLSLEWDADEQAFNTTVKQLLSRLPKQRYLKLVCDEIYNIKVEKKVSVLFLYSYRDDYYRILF
T1 sequence (Q14289 whole entry): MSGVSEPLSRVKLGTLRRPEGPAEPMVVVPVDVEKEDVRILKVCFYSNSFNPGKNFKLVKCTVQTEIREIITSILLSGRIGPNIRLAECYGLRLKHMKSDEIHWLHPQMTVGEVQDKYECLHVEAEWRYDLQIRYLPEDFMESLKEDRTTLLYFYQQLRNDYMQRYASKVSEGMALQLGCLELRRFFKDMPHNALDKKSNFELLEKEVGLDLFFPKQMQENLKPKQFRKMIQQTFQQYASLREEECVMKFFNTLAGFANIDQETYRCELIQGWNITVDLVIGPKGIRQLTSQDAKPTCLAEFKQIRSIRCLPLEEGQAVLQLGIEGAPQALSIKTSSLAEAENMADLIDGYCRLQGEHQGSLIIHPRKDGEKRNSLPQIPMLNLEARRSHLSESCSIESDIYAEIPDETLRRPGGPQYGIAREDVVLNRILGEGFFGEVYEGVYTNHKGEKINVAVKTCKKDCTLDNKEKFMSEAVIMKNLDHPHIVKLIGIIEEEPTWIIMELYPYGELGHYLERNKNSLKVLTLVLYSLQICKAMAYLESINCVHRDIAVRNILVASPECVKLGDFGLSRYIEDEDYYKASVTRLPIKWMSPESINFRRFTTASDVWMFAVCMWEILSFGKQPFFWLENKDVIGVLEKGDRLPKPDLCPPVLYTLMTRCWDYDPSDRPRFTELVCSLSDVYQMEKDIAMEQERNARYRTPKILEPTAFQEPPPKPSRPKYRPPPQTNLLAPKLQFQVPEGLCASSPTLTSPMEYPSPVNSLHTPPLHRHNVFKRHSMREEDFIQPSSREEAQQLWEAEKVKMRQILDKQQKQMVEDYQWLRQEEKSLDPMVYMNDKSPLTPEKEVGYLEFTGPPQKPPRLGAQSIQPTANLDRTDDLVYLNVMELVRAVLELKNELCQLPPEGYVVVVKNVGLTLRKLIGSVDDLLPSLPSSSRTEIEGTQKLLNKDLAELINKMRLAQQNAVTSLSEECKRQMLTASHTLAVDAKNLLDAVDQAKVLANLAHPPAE
T2 sequence (Q96GD4 whole entry): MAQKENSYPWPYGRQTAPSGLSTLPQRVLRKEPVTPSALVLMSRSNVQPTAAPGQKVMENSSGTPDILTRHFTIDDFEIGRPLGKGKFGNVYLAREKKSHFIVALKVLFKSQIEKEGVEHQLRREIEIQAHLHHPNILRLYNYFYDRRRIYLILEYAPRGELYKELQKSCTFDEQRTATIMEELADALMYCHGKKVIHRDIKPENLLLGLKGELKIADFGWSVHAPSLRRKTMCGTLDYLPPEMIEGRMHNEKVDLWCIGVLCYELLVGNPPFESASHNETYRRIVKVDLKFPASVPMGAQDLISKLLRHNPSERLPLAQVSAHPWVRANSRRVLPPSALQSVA
T7 sequence (Q9UIK4 whole entry): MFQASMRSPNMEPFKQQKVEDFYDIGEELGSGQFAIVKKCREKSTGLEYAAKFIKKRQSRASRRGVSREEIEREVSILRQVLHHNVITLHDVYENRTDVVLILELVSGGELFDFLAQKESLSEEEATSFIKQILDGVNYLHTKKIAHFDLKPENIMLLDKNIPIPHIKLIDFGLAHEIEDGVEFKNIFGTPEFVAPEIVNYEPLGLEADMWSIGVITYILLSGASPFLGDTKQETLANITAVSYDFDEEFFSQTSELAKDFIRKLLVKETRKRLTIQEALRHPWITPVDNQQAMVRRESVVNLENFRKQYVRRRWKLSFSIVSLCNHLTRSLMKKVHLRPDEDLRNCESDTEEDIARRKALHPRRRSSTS

Question: For `C=CC(=O)Nc1cc(-c2cc(-c3cc4c([nH]3)CCNC4=O)ccn2)ccc1OC(F)(F)F` [compound 11], which inhibition at 0.01 µM ([1]; 10 nM) is on record?
Answer: -11%

Question: And the inhibition at 0.1 µM ([1]; 100 nM)?
Answer: -5%

Question: What about the inhibition at 1 µM ([1]; 1000 nM) of the same compound?
Answer: 6%

Question: And the inhibition at 0.01 µM ([2]; 10 nM)?
Answer: 4%

Question: What about the inhibition at 0.1 µM ([2]; 100 nM) of the same compound?
Answer: 19%

Question: What about the inhibition at 1 µM ([2]; 1000 nM) of the same compound?
Answer: 27%

Question: What about the inhibition at 0.01 µM ([3]; 10 nM) of the same compound?
Answer: -3%

Question: And the inhibition at 0.1 µM ([3]; 100 nM)?
Answer: -1%

Question: What about the inhibition at 1 µM ([3]; 1000 nM) of the same compound?
Answer: 11%

Question: And the inhibition at 0.01 µM ([4]; 10 nM)?
Answer: -9%

Question: And the inhibition at 0.1 µM ([4]; 100 nM)?
Answer: -1%

Question: What about the inhibition at 1 µM ([4]; 1000 nM) of the same compound?
Answer: 38%

Question: And the inhibition at 0.01 µM ([5]; 10 nM)?
Answer: -16%

Question: What about the inhibition at 0.1 µM ([5]; 100 nM) of the same compound?
Answer: -8%

Question: What about the inhibition at 1 µM ([5]; 1000 nM) of the same compound?
Answer: 8%

Question: What about the inhibition at 0.01 µM ([6]; 10 nM) of the same compound?
Answer: 7%

Question: What about the inhibition at 0.1 µM ([6]; 100 nM) of the same compound?
Answer: 9%

Question: What about the inhibition at 1 µM ([6]; 1000 nM) of the same compound?
Answer: 5%

Question: And the inhibition at 0.01 µM ([7]; 10 nM)?
Answer: 8%

Question: What about the inhibition at 0.1 µM ([7]; 100 nM) of the same compound?
Answer: 3%

Question: And the inhibition at 1 µM ([7]; 1000 nM)?
Answer: 13%

Question: And the inhibition at 0.01 µM ([8]; 10 nM)?
Answer: -9%

Question: What about the inhibition at 0.1 µM ([8]; 100 nM) of the same compound?
Answer: -4%

Question: What about the inhibition at 1 µM ([8]; 1000 nM) of the same compound?
Answer: -13%
